Reference: patent US20080064689A1, “3-[4-(6-Pyridin-3-Yl)-3-Phenyl] -5-(1H-1,2,3-Triazol-1-Ylmethyl)-1,3-Oxazolidin-2-Ones as Antibacterial Agents” (AstraZeneca AB, priority 2004, published 2008)
Structures can show the parent of a compound that is named as a salt.

SMILES	melting point
Cl.O=C1O[C@@H](Cn2ccnn2)CN1c1ccc(-c2ccc(C3=NO[C@@H](CN4CCOCC4)C3)nc2)c(F)c1	239 to 245 °C
Cl.O=C1O[C@@H](Cn2ccnn2)CN1c1ccc(-c2ccc(C3=NO[C@H](CN4CCOCC4)C3)nc2)c(F)c1	242 °C
O=C1O[C@@H](Cn2ccnn2)CN1c1ccc(-c2ccc(C3=NO[C@H](CN4CCCC4)C3)nc2)c(F)c1 (as salt: hydrochloride) [Example 12]	260 to 263 °C
O=C1O[C@@H](Cn2ccnn2)CN1c1ccc(-c2ccc(C3=NO[C@H](CN4CCCCC4)C3)nc2)c(F)c1 (as salt: hydrochloride) [Example 13, (5R)-3-(3-Fluoro-4-{6-[(5S)-5-(piperidin-1-ylmethyl)-4,5-dihydroisoxazol-3-yl]pyridin-3-yl}phenyl)-5-(1H-1,2,3-triazol-1-ylmethyl)-1,3-oxazolidin-2-one]	211 to 215 °C
O=C1O[C@@H](Cn2ccnn2)CN1c1ccc(-c2ccc(C3=NO[C@H](CN4CC=CCC4)C3)nc2)c(F)c1 (as salt: hydrochloride) [Example 14, (5R)-3-(4-{6-[(5S)-5-(3,6-Dihydropyridin-1(2H)-ylmethyl)-4,5-dihydroisoxazol-3-yl]pyridin-3-yl}-3-fluorophenyl)-5-(1H-1,2,3-triazol-1-ylmethyl)-1,3-oxazolidin-2-one]	250 to 255 °C
CN(C)CC(=O)NC[C@@H]1CC(c2ccc(-c3ccc(N4C[C@H](Cn5ccnn5)OC4=O)cc3F)cn2)=NO1 (as salt: hydrochloride) [Example 17, N^1-{[(5S)-3-(5-{2-Fluoro-4-[(5R)-2-oxo-5-(1H-1,2,3-triazol-1-ylmethyl)-1,3-oxazolidin-3-yl]phenyl}pyridin-2-yl)-4,5-dihydroisoxazol-5-yl]methyl}-N^2,N^2-dimethylglycinamide hydrochloride]	202 to 204 °C
O=C(NC[C@@H]1CC(c2ccc(-c3ccc(N4C[C@H](Cn5ccnn5)OC4=O)cc3F)cn2)=NO1)[C@@H]1CCCN1 (as salt: hydrochloride) [Example 20, N-{[(5S)-3-(5-{2-Fluoro-4-[(5R)-2-oxo-5-(1H-1,2,3-triazol-1-ylmethyl)-1,3-oxazolidin-3-yl]phenyl}pyridin-2-yl)-4,5-dihydroisoxazol-5-yl]methyl}-L-prolinamide hydrochloride]	246 to 249 °C
CC(C)[C@@H](N)C(=O)NC[C@@H]1CC(c2ccc(-c3ccc(N4C[C@H](Cn5ccnn5)OC4=O)cc3F)cn2)=NO1 (as salt: hydrochloride) [Example 21, N^1-{[(5S)-3-(5-{2-Fluoro-4-[(5R)-2-oxo-5-(1H-1,2,3-triazol-1-ylmethyl)-1,3-oxazolidin-3-yl]phenyl}pyridin-2-yl)-4,5-dihydroisoxazol-5-yl]methyl}-D-valinamide hydrochloride]	130 to 134 °C
C[C@H](N)C(=O)NC[C@@H]1CC(c2ccc(-c3ccc(N4C[C@H](Cn5ccnn5)OC4=O)cc3F)cn2)=NO1 (as salt: hydrochloride) [Example 22, N^1-{[(5S)-3-(5-{2-fluoro-4-[(5R)-2-oxo-5-(1H-1,2,3-triazol-1-ylmethyl)-1,3-oxazolidin-3-yl]phenyl}pyridin-2-yl)-4,5-dihydroisoxazol-5-yl]methyl}-L-alaninamide hydrochloride]	242 to 244 °C
CN(C)CC(=O)N(C)C[C@@H]1CC(c2ccc(-c3ccc(N4C[C@H](Cn5ccnn5)OC4=O)cc3F)cn2)=NO1 (as salt: hydrochloride) [Example 23, N^1-{[(5S)-3-(5-{2-fluoro-4-[(5R)-2-oxo-5-(1H-1,2,3-triazol-1-ylmethyl)-1,3-oxazolidin-3-yl]phenyl}pyridin-2-yl)-4,5-dihydroisoxazol-5-yl]methyl}-N^1,N^2,N^2-trimethylglycinamide]	122 to 132 °C
O=C1O[C@@H](Cn2ccnn2)CN1c1ccc(-c2ccc(C3=NO[C@H](CN4CCOCC4)C3)nc2)c(F)c1 (as salt: sulfonic acid salt) [Example 3c, (5R)-3-(3-Fluoro-4-{6-[(5S)-5-(morpholin-4-ylmethyl)-4,5-dihydroisoxazol-3-yl]pyridin-3-yl}phenyl)-5-(1H-1,2,3-triazol-1-ylmethyl)-1,3-oxazolidin-2-one, methanesulfonic acid salt]	165 to 168 °C
N[C@@H](CCC(=O)O)C(=O)NC[C@@H]1CC(c2ccc(-c3ccc(N4C[C@H](Cn5ccnn5)OC4=O)cc3F)cn2)=NO1 (racemic) [Example 29, N^1-{[(5S)-3-(5-{2-Fluoro-4-[(SR)-2-oxo-5-(1H-1,2,3-triazol-1-ylmethyl)-1,3-oxazolidin-3-yl]phenyl}pyridin-2-yl)-4,5-dihydroisoxazol-5-yl]methyl}-L-α-glutamine]	215 to 217 °C
CN(C)C[C@@H]1CC(c2ccc(-c3ccc(N4C[C@H](Cn5ccnn5)OC4=O)cc3F)cn2)=NO1 [Example 1, (5R)-3-[4-(6-{(5S)-5-[(Dimethylamino)methyl]-4,5-dihydroisoxazol-3-yl}pyridin-3-yl)-3-fluorophenyl]-5-(1H-1,2,3-triazol-1-ylmethyl)-1,3-oxazolidin-2-one]	212 °C
CNC[C@@H]1CC(c2ccc(-c3ccc(N4C[C@H](Cn5ccnn5)OC4=O)cc3F)cn2)=NO1 [Example 2]	215 °C
Br.O=C1O[C@@H](Cn2ccnn2)CN1c1ccc(-c2ccc(C3=NO[C@H](CN4CCOCC4)C3)nc2)c(F)c1 [Example 3b]	> 280 °C (dec.)
CN1CCN(C[C@@H]2CC(c3ccc(-c4ccc(N5C[C@H](Cn6ccnn6)OC5=O)cc4F)cn3)=NO2)CC1 [Example 4, (5R)-3-[3-Fluoro-4-(6-{(5S)-5-[(4-methylpiperazin-1-yl)methyl]-4,5-dihydroisoxazol-3-yl}pyridin-3-yl)phenyl]-5-(1H-1,2,3-triazol-1-ylmethyl)-1,3-oxazolidin-2-one]	218 °C
O=C1O[C@@H](Cn2ccnn2)CN1c1ccc(-c2ccc(C3=NO[C@H](CNCCO)C3)nc2)c(F)c1 [Example 5, (5R)-3-{3-Fluoro-4-[6-((5S)-5-{[(2-hydroxyethyl)amino]methyl}-4,5-dihydroisoxazol-3-yl)pyridin-3-yl]phenyl}-5-(1H-1,2,3-triazol-1-ylmethyl)-1,3-oxazolidin-2-one]	190 °C
CCCCNC[C@@H]1CC(c2ccc(-c3ccc(N4C[C@H](Cn5ccnn5)OC4=O)cc3F)cn2)=NO1 [Example 6, (5R)-3-[4-(6-{(5S)-5-[(Butylamino)methyl]-4,5-dihydroisoxazol-3-yl}pyridin-3-yl)-3-fluorophenyl]-5-(1H-1,2,3-triazol-1-ylmethyl)-1,3-oxazolidin-2-one]	230 °C
O=C1O[C@@H](Cn2ccnn2)CN1c1ccc(-c2ccc(C3=NO[C@H](CN4CCSCC4)C3)nc2)c(F)c1 [Example 7, (5R)-3-(3-Fluoro-4-{6-[(5S)-5-(thiomorpholin-4-ylmethyl)-4,5-dihydroisoxazol-3-yl]pyridin-3-yl}phenyl)-5-(1H-1,2,3-triazol-1-ylmethyl)-1,3-oxazolidin-2-one]	222 to 225 °C
O=C1O[C@@H](Cn2ccnn2)CN1c1ccc(-c2ccc(C3=NO[C@H](CN4CC[S+]([O-])CC4)C3)nc2)c(F)c1 [Example 8, (5R)-3-[3-Fluoro-4-(6-{(5S)-5-[(1-oxidothiomorpholin-4-yl)methyl]-4,5-dihydroisoxazol-3-yl}pyridin-3-yl)phenyl]-5-(1H-1,2,3-triazol-1-ylmethyl)-1,3-oxazolidin-2-one]	218 to 220 °C
O=C1O[C@@H](Cn2ccnn2)CN1c1ccc(-c2ccc(C3=NO[C@H](CN4CCS(=O)(=O)CC4)C3)nc2)c(F)c1 [Example 9, (5R)-3-[4-(6-{(5S)-5-[(1,1-Dioxidothiomorpholin-4-yl)methyl]-4,5-dihydroisoxazol-3-yl}pyridin-3-yl)-3-fluorophenyl]-5-(1H-1,2,3-triazol-1-ylmethyl)-1,3-oxazolidin-2-one]	200 to 203 °C
CN(CCO)C[C@@H]1CC(c2ccc(-c3ccc(N4C[C@H](Cn5ccnn5)OC4=O)cc3F)cn2)=NO1 [Example 10, (5R)-3-[3-Fluoro-4-[6-((5S)-5-{[(2-hydroxyethyl)(methyl)amino]methyl]-4,5-dihydroisoxazol-3-yl)pyridin-3-yl]phenyl}-5-(1H-1,2,3-triazol-1-ylmethyl)-1,3-oxazolidin-2-one]	153 to 156 °C
O=C1O[C@@H](Cn2ccnn2)CN1c1ccc(-c2ccc(C3=NO[C@@H](CN4CCOCC4)C3)nc2)c(F)c1 [Example 11, (5R)-3-(3-Fluoro-4-{6-[(5R)-5-(morpholin-4-ylmethyl)-4,5-dihydroisoxazol-3-yl]pyridin-3-yl}phenyl)-5-(1H-1,2,3-triazol-1-ylmethyl)-1,3-oxazolidin-2-one]	239 to 245 °C
CC(C)(C)OC(=O)NC[C@@H]1CC(c2ccc(-c3ccc(N4C[C@H](Cn5ccnn5)OC4=O)cc3F)cn2)=NO1 [Example 15, tert-Butyl {[(5S)-3-(5-{2-fluoro-4-[(5R)-2-oxo-5-(1H-1,2,3-triazol-1-ylmethyl)-1,3-oxazolidin-3-yl]phenyl}pyridin-2-yl)-4,5-dihydroisoxazol-5-yl]methyl}carbamate]	228 to 230 °C
CN(CC(=O)OC(C)(C)C)C[C@@H]1CC(c2ccc(-c3ccc(N4C[C@H](Cn5ccnn5)OC4=O)cc3F)cn2)=NO1 [Example 18, tert-Butyl N-{[(5S)-3-(5-{2-fluoro-4-[(5R)-2-oxo-5-(1H-1,2,3-triazol-1-ylmethyl)-1,3-oxazolidin-3-yl]phenyl}pyridin-2-yl)-4,5-dihydroisoxazol-5-yl]methyl}-N-methylglycinate]	180 °C
CN(CC(=O)O)C[C@@H]1CC(c2ccc(-c3ccc(N4C[C@H](Cn5ccnn5)OC4=O)cc3F)cn2)=NO1 [Example 19, N-{[(5S)-3-(5-{2-Fluoro-4-[(5R)-2-oxo-5-(1H-1,2,3-triazol-1-ylmethyl)-1,3-oxazolidin-3-yl]phenyl}pyridin-2-yl)-4,5-dihydroisoxazol-5-yl]methyl}-N-methylglycine]	212 to 218 °C
